Source: article PMC4403932 (Journal of Medicinal Chemistry, 2015)
Read-outs that look alike come from different tables or passages of the source.

Experiments:
Type in all cases: binding
[1] = biological target: T1, BRD2(1) (Homo sapiens, UniProt P25440); experiment: Isothermal titration calorimetry, BRD2(1); settings: for Kd / TΔS / ΔG / N (stoichiometry) / ΔHobs: ITC, 15 °C; for Kd: 50 mM HEPES pH 7.5, 150 mM NaCl, triplicate; for Kd / N (stoichiometry) / ΔHobs: reverse titration; for LE (ligand efficiency): LE = ΔG/N, N number of non-hydrogen atoms
T1 construct: Fragments were tested in a thermal shift assay against bromodomains of the BET subfamily; made in house
Protocol: Experiments were carried out on an ITC200 titration microcalorimeter from MicroCal, LLC (GE Healthcare) equipped with a Washing module, with a cell volume of 0.2003 mL, and a 40 μL microsyringe. Experiments were carried out at 15 °C while stirring at 1000 rpm, in ITC buffer (50 mM HEPES, pH 7.5 (at 25 °C), 150 mM NaCl). The microsyringe was loaded with a solution of the protein sample (300−740 μM protein for BRD9 and BRD4(1), respectively, in ITC buffer) and was carefully inserted into the calorimetric cell which was filled with an amount of the ligand (0.2 mL, 20–25 μM in ITC buffer). The system was first allowed to equilibrate until the cell temperature reached 15 °C, and an additional delay of 60 s was applied. All titrations were conducted using an initial control injection of 0.3 μL followed by 38 identical injections of 1 μL with a duration of 2 s (per injection) and a spacing of 120 s between injections. The titration experiments were designed in such a fashion as to ensure complete saturation of the proteins before the final injection. The heat of dilution for the proteins was independent of their concentration and corresponded to the heat observed from the last injection, following saturation of ligand binding, thus facilitating the estimation of the baseline of each titration from the last injection. The collected data were corrected for protein heats of dilution (measured on separate experiments by titrating the proteins into ITC buffer) and deconvoluted using the MicroCal Origin software supplied with the instrument to yield enthalpies of binding (ΔH) and binding constants (KB) in the same fashion as that previously described in detail by Wiseman and co-workers.[66] Thermodynamic parameters were calculated using the basic equation of thermodynamics (ΔG = ΔH – TΔS = −RT ln KB, where ΔG, ΔH, and ΔS are the changes in free energy, enthalpy, and entropy of binding, respectively). In all cases a single binding site model was employed, supplied with the MicroCal Origin software package.

[2] = biological target: T2, BRD9 (Homo sapiens, UniProt Q9H8M2); experiment: Protein stability (thermal) shift assay, BRD9
T2 construct: made in house
T2 sequence (Q9H8M2 136-240 limits assumed): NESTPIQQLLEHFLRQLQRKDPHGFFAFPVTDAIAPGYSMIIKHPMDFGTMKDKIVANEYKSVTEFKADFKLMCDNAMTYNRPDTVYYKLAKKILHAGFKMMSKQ

[3] = biological target: T3, BRD4(1) (Homo sapiens, UniProt O60885); experiment: Protein stability (thermal) shift assay, BRD4(1)
T3 construct: made in house

[4] = biological target: T1, BRD2(1); experiment: Protein stability (thermal) shift assay, BRD2(1); settings: compound 10 μM, protein 2 μM; average of triplicate
[5] = biological target: T4, PCAF (Homo sapiens, UniProt Q92831); experiment: Protein stability (thermal) shift assay, PCAF; settings: compound 10 μM, protein 2 μM; average of triplicate
T4 construct: representative BRDs from other structural subfamilies (family I, PCAF); made in house
T4 sequence (Q92831 723-827 limits assumed): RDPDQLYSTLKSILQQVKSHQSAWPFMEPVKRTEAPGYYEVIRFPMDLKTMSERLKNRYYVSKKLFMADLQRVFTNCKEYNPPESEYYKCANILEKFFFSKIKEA

[6] = biological target: T5, CREBBP (Homo sapiens, UniProt Q92793); experiment: Protein stability (thermal) shift assay, CREBBP; settings: compound 10 μM, protein 2 μM; average of triplicate; read-out: ΔTm Shift, CREBBP
T5 construct: small thermal shits (1.0–1.3 °C) for the bromodomain of CREBBP; made in house

[7] = biological target: T6, BRDT(2) (Homo sapiens, UniProt Q58F21); experiment: Protein stability (thermal) shift assay, BRDT(2); settings: compound 10 μM, protein 2 μM; average of triplicate; read-out: ΔTm Shift, BRDT(2)
T6 construct: made in house

[8] = biological target: T7, PB1(5) (Homo sapiens, UniProt Q86U86); experiment: Protein stability (thermal) shift assay, PB1(5); settings: compound 10 μM, protein 2 μM; average of triplicate
T7 construct: made in house

[9] = biological target: T8, BRD3(2) (Homo sapiens, UniProt Q15059); experiment: Protein stability (thermal) shift assay, BRD3(2); settings: compound 10 μM, protein 2 μM; average of triplicate
T8 construct: made in house

[10] = biological target: T9, BRD4(2) (Homo sapiens, UniProt O60885); experiment: Protein stability (thermal) shift assay, BRD4(2); settings: compound 10 μM, protein 2 μM; average of triplicate
T9 construct: made in house

[11] = biological target: T10, BRDT(1) (Homo sapiens, UniProt Q58F21); experiment: Protein stability (thermal) shift assay, BRDT(1); settings: compound 10 μM, protein 2 μM; average of triplicate
T10 construct: made in house

[12] = biological target: T11, BAZ2B (Homo sapiens, UniProt Q9UIF8); experiment: Protein stability (thermal) shift assay, BAZ2B; settings: compound 10 μM, protein 2 μM; average of triplicate; read-out: ΔTm Shift, BAZ2BA
T11 construct: representative BRDs from other structural subfamilies (family I, PCAF); family III, CREBBP; family IV, BRD9; family V, BAZ2B; made in house
T11 sequence (Q9UIF8 2060-2164 limits assumed): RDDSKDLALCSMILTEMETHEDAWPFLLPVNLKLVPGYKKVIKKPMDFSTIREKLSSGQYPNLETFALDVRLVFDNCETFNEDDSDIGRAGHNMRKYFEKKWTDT

[13] = thermal shift, 10 μM compound, 2 μM protein, read-out: ΔTm

T1 sequence (P25440 74-180 limits assumed): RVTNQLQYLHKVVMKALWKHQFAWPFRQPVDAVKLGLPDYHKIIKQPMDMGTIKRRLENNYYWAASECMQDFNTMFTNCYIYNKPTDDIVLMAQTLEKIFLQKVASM
T5 sequence (Q92793 1085-1192 limits assumed): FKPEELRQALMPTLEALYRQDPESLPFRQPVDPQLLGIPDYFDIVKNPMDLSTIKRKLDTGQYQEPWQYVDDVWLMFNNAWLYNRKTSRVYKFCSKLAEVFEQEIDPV
T7 sequence (Q86U86 653-763 limits assumed): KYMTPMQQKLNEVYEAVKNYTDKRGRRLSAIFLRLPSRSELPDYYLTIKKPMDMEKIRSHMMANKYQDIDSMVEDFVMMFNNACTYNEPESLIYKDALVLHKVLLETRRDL
T8 sequence (Q15059 306-415 limits assumed): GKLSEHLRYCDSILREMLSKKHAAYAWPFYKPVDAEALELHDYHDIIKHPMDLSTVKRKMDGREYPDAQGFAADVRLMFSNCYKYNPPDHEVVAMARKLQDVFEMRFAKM

Row | Structure (SMILES) | Kd [1] [µM] | TΔS [1] [kcal/mol] | ΔG [1] | N (stoichiometry) [1] | ΔHobs [1] | LE (ligand efficiency) [1] | ΔTm at 10 µM ([2]; compound 10 μM, protein 2 μM, average of triplicate, read-out: ΔTm Shift, BRD9) [°C] | ΔTm at 10 µM [3, 13] [°C] | ΔTm at 10 µM [4] [°C] | ΔTm at 10 µM [5] [°C] | ΔTm at 10 µM [6] [°C] | ΔTm at 10 µM [7] [°C] | ΔTm at 10 µM [8] [°C] | ΔTm at 10 µM [9] [°C] | ΔTm at 10 µM [10] [°C] | ΔTm at 10 µM [11] [°C] | ΔTm at 10 µM [12] [°C] | ΔTm at 10 µM [2, 13] [°C] | ΔTm at 10 µM ([3]; compound 10 μM, protein 2 μM, average of triplicate, read-out: ΔTm Shift, BRD4(1)) [°C]
1 | COc1ccc(Br)cc1-c1nc(N)nc2[nH]cnc12 [Compound 7d, 2-Amino-6-(5-bromo-2-methoxyphenyl)-9H-purine] | 4.44 ± 0.162 | 0.44 | –7.06 kcal/mol | 0.99 ± 0.011 | –6.62 ± 0.09 kcal/mol | 0.37 | 3.6 | 3.2 | 2.5 | -0.45 | 2.9 | 1.8 | 1.6 | 0.7 | 0.6 | 0.0286 | 0.237 |  | 
2 | Nc1nc(-c2cc(Br)cc3c2OCC3)c2nc[nH]c2n1 [Compound 11, 2-Amino-6-(5-bromo-2,3-dihydrobenzo[b]furan-7-yl)-9H-purine] | 1.42 ± 0.06 | 2.06 | –7.71 kcal/mol | 1.02 ± 0.006 | –5.65 ± 0.04 kcal/mol | 0.39 |  |  | 2.8 | 0.9 | 3.6 | 4 | 0.8 | 5.4 | 2.8 | 1.7 | 0.37 | 6.5 | 5.3
